Data taken from paper PMC8026479 (Cancer Chemotherapy and Pharmacology, 2021).
Like-named read-outs stand apart in the source and are kept apart here.

Columns and labels:
[1] = tested on: chemotherapy-induced myelosuppression in ES-SCLC patients; assay: Study G1T28-03 Part 1 DLTs and myelosuppression endpoints (with topotecan); assay type: in vivo, human
Excerpt: G1T28-03 (NCT02514447) was a multicentre Phase Ib/IIa study in patients with previously treated ES-SCLC [14]. Patients were aged ≥ 18 years and had histologically or cytologically confirmed ES-SCLC that had progressed during or after prior first- or second-line chemotherapy, measurable disease per RECIST version 1.1, an ECOG performance status of 0–2, and adequate organ function. Part 1 was a Phase Ib, open-label, dose-finding portion. Part 2 was a Phase IIa, randomized, double-blind, placebo-controlled portion. […] In Part 1 of the study, blood samples for PK analysis were collected at prespecified time points on Cycle 1 Day 1 and Cycle 1 Day 4 for all patients.

[2] = Study G1T28-02 Part 1 plasma PK (with E/P); assay type: in vivo, human; conditions: ES-SCLC + E/P; for Vd: read-out: Vz; for Tmax: range; for AUC: read-out: AUCtau (AUC0-inf, footnote a)
Excerpt: G1T28-02 (NCT02499770) was a multicentre Phase Ib/IIa study in patients with newly diagnosed ES-SCLC [5]. Eligible patients were aged ≥ 18 years and had histologically or cytologically confirmed ES-SCLC, measurable disease per Response Evaluation Criteria in Solid Tumors (RECIST) version 1.1, an Eastern Cooperative Oncology Group (ECOG) performance status of 0–2, and adequate organ function. […] In the dose-finding Part 1 portion, blood samples for PK analysis were collected at prespecified time points on Cycle 1 Day 1 and Cycle 1 Day 3 (200 mg/m^2 cohort: all patients; 240 mg/m^2 cohort: optional).

[3] = G1T28-03 Part 1, 200 mg/m2 + topotecan 0.75 mg/m2 (n = 4)
[4] = G1T28-03 Part 1, 200 mg/m2 + topotecan 1.25 mg/m2 (n = 3)
[5] = G1T28-03 Part 1, 200 mg/m2 + topotecan […]2 (n = 2)
[6] = G1T28-03 Part 1, 240 mg/m2 + topotecan 0.75 mg/m2 (n = 8)
[7] = G1T28-03 Part 1, 240 mg/m2 + topotecan 1.00 mg/m2 (n = 8)
[8] = G1T28-03 Part 1, 280 mg/m2 + topotecan 0.75 mg/m2 (n = 7)
[9] = G1T28-03 Part 1, total (n = 32)
[10] = 200 mg/m2, Cycle 1 Day 3 (n = 8), mean
[11] = 240 mg/m2, Cycle 1 Day 1 (n = 1)
[12] = human, plasma, intravenous, 200 mg/m2, Cycle 1 Day 1 (n = 8), mean
[13] = human, plasma, intravenous, 200 mg/m2, Cycle 1 Day 3 (n = 8), mean
[14] = human, plasma, intravenous, 240 mg/m2, Cycle 1 Day 1 (n = 1)
[15] = human, plasma, intravenous, 240 mg/m2, Cycle 1 Day 3 (n = 1)

Structure (SMILES): CN1CCN(c2ccc(Nc3ncc4cc5n(c4n3)C3(CCCCC3)CNC5=O)nc2)CC1 [trilaciclib]
- patients reporting DLTs ([1]; G1T28-03 Part 1, 200 mg/m2 + topotecan 0.75 mg/m2): 2 of 4
- DSN in Cycle 1, mean (SD) [1, 3]: 0 (0.0) days
- MAHE, event rate [1, 3]: 0.102 per week
- Mean ANC Nadir in Cycle 1 [1, 3]: 0.98 (0.330) ×109/L
- Occurrence of ESA administrations [1, 3]: 0 n (%)
- Occurrence of FN [1, 3]: 0 n (%)
- Occurrence of G-CSF administration [1, 3]: 1 (25.0) n (%)
- Occurrence of Grade 3 or 4 decreased hemoglobin laboratory values [1, 3]: 2 (50.0) n (%)
- Occurrence of Grade 3 or 4 decreased platelet count values [1, 3]: 2 (50.0) n (%)
- Occurrence of Grade 3 or 4 hematologic laboratory abnormalities [1, 3]: 4 (100.0) n (%)
- Occurrence of IV antibiotic use [1, 3]: 1 (25.0) n (%)
- Occurrence of RBC transfusions on/after Week 5 [1, 3]: 2 (50.0) n (%)
- Occurrence of SN [1, 3]: 1 (25.0) n (%)
- Occurrence of infection SAEs [1, 3]: 1 (25.0) n (%)
- Occurrence of platelet transfusions [1, 3]: 0 n (%)
- Occurrence of pulmonary infection SAEs [1, 3]: 1 (25.0) n (%)
- DSN in Cycle 1, mean (SD) [1, 4]: 8 (6.8) days
- MAHE, event rate [1, 4]: 0.156 per week
- Mean ANC Nadir in Cycle 1 [1, 4]: 0.47 (0.551) ×109/L
- Occurrence of ESA administrations [1, 4]: 1 (33.3) n (%)
- Occurrence of FN [1, 4]: 0 n (%)
- Occurrence of G-CSF administration [1, 4]: 2 (66.7) n (%)
- Occurrence of Grade 3 or 4 decreased hemoglobin laboratory values [1, 4]: 1 (33.3) n (%)
- Occurrence of Grade 3 or 4 decreased platelet count values [1, 4]: 1 (33.3) n (%)
- Occurrence of Grade 3 or 4 hematologic laboratory abnormalities [1, 4]: 3 (100.0) n (%)
- Occurrence of IV antibiotic use [1, 4]: 1 (33.3) n (%)
- Occurrence of RBC transfusions on/after Week 5 [1, 4]: 1 (33.3) n (%)
- Occurrence of SN [1, 4]: 2 (66.7) n (%)
- Occurrence of infection SAEs [1, 4]: 1 (33.3) n (%)
- Occurrence of platelet transfusions [1, 4]: 1 (33.3) n (%)
- Occurrence of pulmonary infection SAEs [1, 4]: 1 (33.3) n (%)
- DSN in Cycle 1, mean (SD) [1, 5]: 14 (1.4) days
- MAHE, event rate [1, 5]: 0.403 per week
- Mean ANC Nadir in Cycle 1 [1, 5]: 0.20 (0.000) ×109/L
- Occurrence of ESA administrations [1, 5]: 2 (100) n (%)
- Occurrence of FN [1, 5]: 0 n (%)
- Occurrence of G-CSF administration [1, 5]: 2 (100) n (%)
- Occurrence of Grade 3 or 4 decreased hemoglobin laboratory values [1, 5]: 2 (100) n (%)
- Occurrence of Grade 3 or 4 decreased platelet count values [1, 5]: 2 (100) n (%)
- Occurrence of Grade 3 or 4 hematologic laboratory abnormalities [1, 5]: 2 (100.0) n (%)
- Occurrence of IV antibiotic use [1, 5]: 2 (100) n (%)
- Occurrence of RBC transfusions on/after Week 5 [1, 5]: 2 (100) n (%)
- Occurrence of SN [1, 5]: 2 (100) n (%)
- Occurrence of infection SAEs [1, 5]: 2 (100) n (%)
- Occurrence of platelet transfusions [1, 5]: 0 n (%)
- Occurrence of pulmonary infection SAEs [1, 5]: 1 (50.0) n (%)
- DSN in Cycle 1, mean (SD) [1, 6]: 0 (0.0) days
- MAHE, event rate [1, 6]: 0.037 per week
- Mean ANC Nadir in Cycle 1 [1, 6]: 1.31 (0.650) ×109/L
- Occurrence of ESA administrations [1, 6]: 1 (12.5) n (%)
- Occurrence of FN [1, 6]: 0 n (%)
- Occurrence of G-CSF administration [1, 6]: 4 (50.0) n (%)
- Occurrence of Grade 3 or 4 decreased hemoglobin laboratory values [1, 6]: 3 (37.5) n (%)
- Occurrence of Grade 3 or 4 decreased platelet count values [1, 6]: 0 n (%)
- Occurrence of Grade 3 or 4 hematologic laboratory abnormalities [1, 6]: 7 (87.5) n (%)
- Occurrence of IV antibiotic use [1, 6]: 1 (12.5) n (%)
- Occurrence of RBC transfusions on/after Week 5 [1, 6]: 1 (12.5) n (%)
- Occurrence of SN [1, 6]: 0 n (%)
- Occurrence of infection SAEs [1, 6]: 0 n (%)
- Occurrence of platelet transfusions [1, 6]: 0 n (%)
- Occurrence of pulmonary infection SAEs [1, 6]: 0 n (%)
- DSN in Cycle 1, mean (SD) [1, 7]: 3 (5.5) days
- MAHE, event rate [1, 7]: 0.073 per week
- Mean ANC Nadir in Cycle 1 [1, 7]: 0.63 (0.341) ×109/L
- Occurrence of ESA administrations [1, 7]: 1 (12.5) n (%)
- Occurrence of FN [1, 7]: 0 n (%)
- Occurrence of G-CSF administration [1, 7]: 3 (37.5) n (%)
- Occurrence of Grade 3 or 4 decreased hemoglobin laboratory values [1, 7]: 3 (37.5) n (%)
- Occurrence of Grade 3 or 4 decreased platelet count values [1, 7]: 1 (12.5) n (%)
- Occurrence of Grade 3 or 4 hematologic laboratory abnormalities [1, 7]: 7 (87.5) n (%)
- Occurrence of IV antibiotic use [1, 7]: 1 (12.5) n (%)
- Occurrence of RBC transfusions on/after Week 5 [1, 7]: 2 (25.0) n (%)
- Occurrence of SN [1, 7]: 3 (37.5) n (%)
- Occurrence of infection SAEs [1, 7]: 1 (12.5) n (%)
- Occurrence of platelet transfusions [1, 7]: 0 n (%)
- Occurrence of pulmonary infection SAEs [1, 7]: 1 (12.5) n (%)
- patients reporting DLTs ([1]; G1T28-03 Part 1, 280 mg/m2 + topotecan 0.75 mg/m2): 2 of 7
- DSN in Cycle 1, mean (SD) [1, 8]: 2 (3.6) days
- MAHE, event rate [1, 8]: 0.085 per week
- Mean ANC Nadir in Cycle 1 [1, 8]: 0.86 (0.594) ×109/L
- Occurrence of ESA administrations [1, 8]: 0 n (%)
- Occurrence of FN [1, 8]: 1 (14.3) n (%)
- Occurrence of G-CSF administration [1, 8]: 2 (28.6) n (%)
- Occurrence of Grade 3 or 4 decreased hemoglobin laboratory values [1, 8]: 1 (14.3) n (%)
- Occurrence of Grade 3 or 4 decreased platelet count values [1, 8]: 2 (28.6) n (%)
- Occurrence of Grade 3 or 4 hematologic laboratory abnormalities [1, 8]: 7 (100.0) n (%)
- Occurrence of IV antibiotic use [1, 8]: 2 (28.6) n (%)
- Occurrence of RBC transfusions on/after Week 5 [1, 8]: 1 (14.3) n (%)
- Occurrence of SN [1, 8]: 2 (28.6) n (%)
- Occurrence of infection SAEs [1, 8]: 0 n (%)
- Occurrence of platelet transfusions [1, 8]: 1 (14.3) n (%)
- Occurrence of pulmonary infection SAEs [1, 8]: 0 n (%)
- DSN in Cycle 1, mean (SD) [1, 9]: 3 (5.1) days
- MAHE, event rate [1, 9]: 0.107 per week
- Occurrence of ESA administrations [1, 9]: 5 (15.6) n (%)
- Occurrence of FN [1, 9]: 1 (3.1) n (%)
- Occurrence of G-CSF administration [1, 9]: 14 (43.8) n (%)
- Occurrence of Grade 3 or 4 decreased hemoglobin laboratory values [1, 9]: 12 (37.5) n (%)
- Occurrence of Grade 3 or 4 decreased platelet count values [1, 9]: 8 (25.0) n (%)
- Occurrence of Grade 3 or 4 hematologic laboratory abnormalities [1, 9]: 30 (93.8) n (%)
- Occurrence of IV antibiotic use [1, 9]: 8 (25.0) n (%)
- Occurrence of RBC transfusions on/after Week 5 [1, 9]: 9 (28.1) n (%)
- Occurrence of SN [1, 9]: 10 (31.3) n (%)
- Occurrence of infection SAEs [1, 9]: 5 (15.6) n (%)
- Occurrence of platelet transfusions [1, 9]: 2 (6.3) n (%)
- Occurrence of pulmonary infection SAEs [1, 9]: 4 (12.5) n (%)
- Cmax [2, 10]: 1620 ng/mL
- T1/2 [2, 10]: 9.12 h
- AUC(0-inf) [2, 11]: 2280 ng·h/mL
- Cmax [2, 11]: 1570 ng/mL
- clearance [2, 12]: 2500 mL/min
- AUC(0-inf) ([2]; human, plasma, intravenous, 200 mg/m2, Cycle 1 Day 1 (n = 8), mean, read-out: AUC0-inf): 2560 ng·h/mL
- Cmax ([2]; human, plasma, intravenous, 200 mg/m2, Cycle 1 Day 1 (n = 8), mean, read-out: Cmax): 1240 ng/mL
- Vd [2, 12]: 1700 L
- Tmax ([2]; human, plasma, intravenous, 200 mg/m2, Cycle 1 Day 1 (n = 8)): 0.45 to 0.98 h
- clearance [2, 13]: 2230 mL/min
- AUC [2, 13]: 3110 ng·h/mL
- Vd [2, 13]: 1770 L
- Tmax ([2]; human, plasma, intravenous, 200 mg/m2, Cycle 1 Day 3 (n = 8)): 0.47 to 1 h
- clearance [2, 14]: 3850 mL/min
- half-life [2, 14]: 2.91 h
- Vd [2, 14]: 967 L
- clearance [2, 15]: 3000 mL/min
- half-life [2, 15]: 4.03 h
- AUC [2, 15]: 2960 ng·h/mL
- Cmax ([2]; human, plasma, intravenous, 240 mg/m2, Cycle 1 Day 3 (n = 1), read-out: Cmax): 2260 ng/mL
- Vd [2, 15]: 1050 L
